# Measurements published in ChEMBL document CHEMBL4765481, “Sialyltransferase Inhibitors Suppress Breast Cancer Metastasis” (J Med Chem, 2021).
# Activity calls are given as the source filed them. No cut-off for these calls is given here.
# Legend:
# [1] = tested on: MDA-MB-231; assay: Inhibition of Sialyltransferase in human MDA-MB-231 cells assessed as reduction in paxillin Tyr118 phosphorylation level at 10 to 20 uM incubated for 48 hrs by immunoblot analysis; assay type: cell-based; details: dose 10-20 µM
# [2] = species on record: Rattus norvegicus; assay: Selectivity ratio of inhibition of rat alpha-2,3-O-ST3GALI at 500 uM to IC50 for inhibition of rat alpha-2,3-N-ST3GALIII
# [3] = Selectivity ratio of IC50 for of inhibition of rat alpha-2,3-O-ST3GALI to IC50 for inhibition of human alpha-2,6-ST6GAL1
# [4] = tested on: MDA-MB-231; assay: Inhibition of Sialyltransferase in human MDA-MB-231 cells assessed as reduction in FAK Tyr397 phosphorylation level at 10 to 20 uM incubated for 48 hrs by immunoblot analysis; assay type: cell-based; details: dose 10-20 µM
# [5] = tested on: MDA-MB-231; assay: Inhibition of serum-induced cell migration of human MDA-MB-231 cells at 20 uM incubated for 16 hrs by Boyden chamber assay; assay type: functional, cell-based
# [6] = target: T1, Beta-galactoside alpha-2,6-sialyltransferase 1 (Homo sapiens, UniProt P15907); assay: Inhibition of human alpha-2,6-ST6GAL1 assessed as reduction in sialylated-product formation using Gal-beta1-4GlcNac and CMP-NeuSAc incubated for 15 mins by reverse-phase HPLC analysis
# T1 sequence (P15907 whole entry): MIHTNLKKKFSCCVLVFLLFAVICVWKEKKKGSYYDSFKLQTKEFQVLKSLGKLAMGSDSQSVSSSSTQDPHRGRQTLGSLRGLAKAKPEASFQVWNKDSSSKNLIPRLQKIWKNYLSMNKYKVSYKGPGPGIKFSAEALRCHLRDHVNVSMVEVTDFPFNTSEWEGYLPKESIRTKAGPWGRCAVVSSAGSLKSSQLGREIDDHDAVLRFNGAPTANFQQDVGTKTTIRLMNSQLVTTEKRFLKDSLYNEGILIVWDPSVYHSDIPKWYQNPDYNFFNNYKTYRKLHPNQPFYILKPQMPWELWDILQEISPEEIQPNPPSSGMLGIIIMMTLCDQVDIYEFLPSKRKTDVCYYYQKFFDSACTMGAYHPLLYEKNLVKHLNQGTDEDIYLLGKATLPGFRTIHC
# [7] = Toxicity in human MDA-MB-231 cells assessed as cell survival at >60 uM relative to control; assay type: cell-based; details: read-out: Survival
# [8] = tested on: MDA-MB-231; assay: Inhibition of Sialyltransferase in human MDA-MB-231 cells assessed as reduction in IKKalpha/beta Ser176/180 phosphorylation level at 10 to 20 uM incubated for 48 hrs by immunoblot analysis; assay type: cell-based; details: dose 10-20 µM
# [9] = species on record: Rattus norvegicus; assay: Selectivity ratio of inhibition of rat alpha-2,3-O-ST3GALI at 1000 uM to IC50 for inhibition of rat alpha-2,3-N-ST3GALIII
# [10] = target: T2, CMP-N-acetylneuraminate-beta-1,4-galactoside alpha-2,3-sialyltransferase (Rattus norvegicus, UniProt Q02734); assay: Inhibition of rat alpha-2,3-N-ST3GALIII assessed as reduction in sialylated-product formation using Gal-beta1-4Glc and CMP-NeuSAc incubated for 1.5 hrs by reverse-phase HPLC analysis
# T2 sequence (Q02734 whole entry): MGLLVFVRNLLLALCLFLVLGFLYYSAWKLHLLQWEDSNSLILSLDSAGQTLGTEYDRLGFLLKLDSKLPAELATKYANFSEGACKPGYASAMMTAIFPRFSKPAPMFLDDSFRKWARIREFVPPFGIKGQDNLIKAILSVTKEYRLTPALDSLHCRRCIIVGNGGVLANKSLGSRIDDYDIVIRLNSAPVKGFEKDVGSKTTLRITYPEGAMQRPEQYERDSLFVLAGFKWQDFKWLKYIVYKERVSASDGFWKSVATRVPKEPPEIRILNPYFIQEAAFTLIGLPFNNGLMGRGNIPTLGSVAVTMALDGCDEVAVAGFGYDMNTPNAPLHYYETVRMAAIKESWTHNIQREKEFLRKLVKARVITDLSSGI
# [11] = tested on: MDA-MB-231; assay: Inhibition of Sialyltransferase in human MDA-MB-231 cells assessed as suppression of sialylation of integrin subunit beta1/beta3/beta4/beta5 at 10 to 20 um after 48 hrs by Western blot analysis; assay type: cell-based; details: dose 10-20 µM
# [12] = tested on: MDA-MB-231; assay: Inhibition of Sialyltransferase in human MDA-MB-231 cells assessed as reduction in NFkappaB Ser536 phosphorylation level at 10 to 20 uM incubated for 48 hrs by immunoblot analysis; assay type: cell-based; details: dose 10-20 µM
# [13] = target: T3, Sialyltransferase ST3Gal-I (Rattus norvegicus) (UniProt Q6H8N0); assay: Inhibition of rat alpha-2,3-O-ST3GALI assessed as reduction in sialylated-product formation at 500 uM using p-nitrophenyl T-antigen and CMP-NeuSAc incubated for 15 mins by reverse-phase HPLC analysis relative to control
# T3 sequence (whole entry): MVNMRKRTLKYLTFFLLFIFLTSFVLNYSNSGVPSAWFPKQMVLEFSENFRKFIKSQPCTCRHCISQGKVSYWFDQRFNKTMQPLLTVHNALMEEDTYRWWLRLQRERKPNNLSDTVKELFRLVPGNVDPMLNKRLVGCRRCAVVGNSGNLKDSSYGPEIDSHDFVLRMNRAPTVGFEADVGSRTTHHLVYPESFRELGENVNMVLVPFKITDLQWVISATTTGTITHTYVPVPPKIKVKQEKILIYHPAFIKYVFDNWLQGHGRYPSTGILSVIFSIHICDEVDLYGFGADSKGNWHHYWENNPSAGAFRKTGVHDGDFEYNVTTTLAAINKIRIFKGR
# [14] = tested on: MDA-MB-231; assay: Inhibition of serum-induced cell migration of human MDA-MB-231 cells incubated for 16 hrs by Boyden chamber assay; assay type: functional, cell-based; details: MDA-MB-231, 16 h
# [15] = tested on: MDA-MB-231; assay: Inhibition of Sialyltransferase in human MDA-MB-231 cells assessed as reduction in FAK Tyr925 phosphorylation level at 10 to 20 uM incubated for 48 hrs by immunoblot analysis; assay type: cell-based; details: dose 10-20 µM
# [16] = Apparent permeability at pH 7.4 by PAMPA
# [17] = target: T3, Sialyltransferase ST3Gal-I (Rattus norvegicus); assay: Inhibition of rat alpha-2,3-O-ST3GALI assessed as reduction in sialylated-product formation at 1 mM using p-nitrophenyl T-antigen and CMP-NeuSAc incubated for 15 mins by reverse-phase HPLC analysis relative to control
# [18] = tested on: MDA-MB-231; assay: Inhibition of Sialyltransferase in human MDA-MB-231 cells assessed as reduction in FAK Tyr576/577 phosphorylation level at 10 to 20 uM incubated for 48 hrs by immunoblot analysis; assay type: cell-based; details: dose 10-20 µM
# [19] = tested on: MDA-MB-231; assay: Inhibition of Sialyltransferase in human MDA-MB-231 cells assessed as decrease p-talin-1 association with integrins beta1 and beta 3 after 48 hrs by immunofluorescence and coimmunoprecipitation assay; assay type: cell-based
# [20] = tested on: MDA-MB-231; assay: Inhibition of Sialyltransferase in human MDA-MB-231 cells assessed as reduction in integrin isoforms expression (alphaV/alpha5/beta1/beta3/beta4/beta5) at 10 to 20 uM incubated for 48 hrs by immunoblot analysis; assay type: cell-based; details: dose 10-20 µM
# [21] = tested on: MDA-MB-231; assay: Inhibition of Sialyltransferase in human MDA-MB-231 cells assessed as reduction in IkappaB-alpha Ser32 phosphorylation level at 10 to 20 uM incubated for 48 hrs by immunoblot analysis; assay type: cell-based; details: dose 10-20 µM
# [22] = tested on: MDA-MB-231; assay: Antiangiogenesis activity against luciferase-tagged human MDA-MB-231 cells xenografted in BALB/c mouse assessed as reduction in number of vessels surrounding tumor nodules by measuring CD31 expression at 10 mg/kg/3 days, ip measured after 50 days by immunostaining; assay type: functional, organism-based; details: time 50.0 day
# [23] = tested on: MDA-MB-231; assay: Antitumor activity against luciferase-tagged human MDA-MB-231 cells xenografted in BALB/c mouse assessed as induction of tumor suppression at 10 mg/kg/3 days, ip measured after 50 days; assay type: functional, organism-based; details: time 50.0 day
# [24] = tested on: MDA-MB-231; assay: Antitumor activity against luciferase-tagged human MDA-MB-231 cells xenografted in BALB/c mouse assessed as reduction in metastatic nodules in lymph node at 10 mg/kg/3 days, ip measured after 50 days by H and E staining based histological analysis; assay type: functional, organism-based; details: time 50.0 day
# [25] = tested on: MDA-MB-231; assay: Antiangiogenesis activity against luciferase-tagged human MDA-MB-231 cells xenografted in BALB/c mouse assessed as reduction in cell proliferation by measuring Ki67 expression at 10 mg/kg/3 days, ip measured after 50 days by immunostaining; assay type: functional, organism-based; details: time 50.0 day
# [26] = tested on: MDA-MB-231; assay: Antitumor activity against luciferase-tagged human MDA-MB-231 cells xenografted in BALB/c mouse assessed as induction of delayed lung metastasis at 10 mg/kg/3 days, ip measured after 50 days; assay type: functional, organism-based; details: time 50.0 day
# [27] = tested on: MDA-MB-231; assay: Antitumor activity against luciferase-tagged human MDA-MB-231 cells xenografted in BALB/c mouse assessed as reduction in number of metastatic foci in lungs at 10 mg/kg/3 days, ip measured after 50 days by histological analysis; assay type: functional, organism-based; details: time 50.0 day
smiles,measurement,setting,value
C[C@H](CCC(=O)OCCOCCOCCOCCN=[N+]=[N-])[C@H]1CC[C@H]2[C@@H]3CC[C@@H]4C[C@H](OC(=O)[C@H](CC(=O)O)Nc5ccc([N+](=O)[O-])c6nonc56)CC[C@]4(C)[C@H]3CC[C@]12C,inhibition,[1],Dose-dependent effect
same,Selectivity ratio,[2],> 495
same,Ratio IC50,[3],> 102
same,inhibition,[4],Dose-dependent effect
same,inhibition,[5],Active
same,IC50,[6],4.9 µM
same,viability,[7],> 90%
same,inhibition,[8],Active
same,Selectivity ratio,[9],< 990
same,IC50,[10],1.01 µM
same,inhibition,[11],Active
same,inhibition,[12],Active
same,inhibition,[13],0%
same,IC50,[14],12 µM
same,inhibition,[15],Dose-dependent effect
same,Papp,[16],9 ×10⁻⁶ cm/s
same,inhibition,[17],50%
same,inhibition,[18],Dose-dependent effect
same,inhibition,[19],Dose-dependent effect
same,inhibition,[20],Dose-dependent effect
same,inhibition,[21],Active
CC(=O)O[C@H]1C(=O)[C@@]2(C)[C@H]([C@H](OC(=O)c3ccccc3)[C@]3(O)C[C@H](OC(=O)[C@H](O)[C@@H](NC(=O)c4ccccc4)c4ccccc4)C(C)=C1C3(C)C)[C@]1(OC(C)=O)CO[C@@H]1C[C@@H]2O,Activity,[22],Active
same,Activity,[23],Active
same,Activity,[24],Active
same,Activity,[25],Active
same,Activity,[26],Active
same,Activity,[27],Active
